According to patent US9895346B2, “Applications of substituent benzyloxy group containing ether compounds for preparing antitumor drugs” (Sinochem Corporation, priority 2013, dated 2018):

Assays:
Format in all cases: cell-based, human
[1] = tested on: lung cancer cell line A549; test: In vitro cell inhibition assay (crystal violet), lung cancer A549
Description: (§1) In vitro Cell inhibition assay is as follows:
(§2) The human cancer cell lines used for this assay were bladder cancer J82, T24, prostate cancer LNCap, PC-3, lung cancer A549, H157, H460, H520, colon cancer HCT8, HCT116, RkO, and leukemia HL-60, etc.
(§3) In vitro cell culture technology was selected for the determination of inhibition rate bladder cancer cell lines J82 and T24, prostate cancer cell lines LNCap and PC-3, lung cancer cell lines A549, H157, H460 and H520. 1000 to 3000 cells were inoculated to 24-well plate, followed by addition of 1 mL culture medium well known to researchers in this field to each well, the cells were cultured in 5% incubator for 24 hours at 37° C., then the different concentration compounds and controls were added to each well. It should be noted that the added volume is not more than 0.5% of total volume. After completion of addition, the cells continued being cultured in incubator for one week, the culture medium was removed and washed by cold PBS of 1 mL once, and then fixed for 10 minutes at room temperature with 1% formalin, followed by wash with PBS of 1 mL. After fixation, stain was carried out with 0.1% crystal violet for 30 minutes. 0.1% crystal violet was recycled. The stained cells were washed gently with deionized water, dried at room temperature and kepted. The inhibition rate was calculated according to the foiling equation. The controls are Selumetinib (AZD6244), Gefitinib, Cisplatin. Inhibition rate=number of left cells each treatment/number of left cells of untreated control×100%

[2] = tested on: lung cancer cell line H460; test: In vitro cell inhibition assay (crystal violet), lung cancer H460
Description: as §1, §2, §3

[3] = tested on: lung cancer cell line H520; test: In vitro cell inhibition assay (crystal violet), lung cancer H520
Description: as §1, §2, §3

## COC=C(C(=O)OC)c1ccccc1COc1ccc2c(C)c(Cl)c(=O)oc2c1 [28-12]
[1]; A549, 1.0 μM
  Inhibition rate on human cancer cells: 80%
[1]; A549, 2.5 μM
  Inhibition rate on human cancer cells: 95%
[1]; A549, 5.0 μM
  Inhibition rate on human cancer cells: 100%
[2]; H460, 1.0 μM
  Inhibition rate on human cancer cells: 75%
[2]; H460, 2.5 μM
  Inhibition rate on human cancer cells: 90%
[2]; H460, 5.0 μM
  Inhibition rate on human cancer cells: 95%
[3]; H520, 1.0 μM
  Inhibition rate on human cancer cells: 50%
[3]; H520, 2.5 μM
  Inhibition rate on human cancer cells: 100%
[3]; H520, 5.0 μM
  Inhibition rate on human cancer cells: 100%

## COC=C(C(=O)OC)c1ccccc1COc1ccc2c(-c3ccc(Cl)cc3)cc(=O)oc2c1 [28-29]
[1]; A549, 5.0 μM
  Inhibition rate on human cancer cells: 95%
[2]; H460, 1.0 μM
  Inhibition rate on human cancer cells: 70%
[2]; H460, 2.5 μM
  Inhibition rate on human cancer cells: 90%
[2]; H460, 5.0 μM
  Inhibition rate on human cancer cells: 95%
[3]; H520, 0.25 μM
  Inhibition rate on human cancer cells: 30%
[3]; H520, 0.5 μM
  Inhibition rate on human cancer cells: 40%
[3]; H520, 1.0 μM
  Inhibition rate on human cancer cells: 70%
[3]; H520, 2.5 μM
  Inhibition rate on human cancer cells: 70%
[3]; H520, 5.0 μM
  Inhibition rate on human cancer cells: 100%

## CCc1cc(=O)oc2cc(OCc3ccccc3C(=COC)C(=O)OC)ccc12 [28-33]
[1]; A549, 1.0 μM
  Inhibition rate on human cancer cells: 80%
[1]; A549, 2.5 μM
  Inhibition rate on human cancer cells: 95%
[1]; A549, 5.0 μM
  Inhibition rate on human cancer cells: 99%
[2]; H460, 1.0 μM
  Inhibition rate on human cancer cells: 90%
[2]; H460, 2.5 μM
  Inhibition rate on human cancer cells: 95%
[2]; H460, 5.0 μM
  Inhibition rate on human cancer cells: 95%
[3]; H520, 2.5 μM
  Inhibition rate on human cancer cells: 90%
[3]; H520, 5.0 μM
  Inhibition rate on human cancer cells: 100%

## CCCc1cc(=O)oc2cc(OCc3ccccc3C(=COC)C(=O)OC)ccc12 [28-34]
[1]; A549, 1.0 μM
  Inhibition rate on human cancer cells: 90%
[1]; A549, 2.5 μM
  Inhibition rate on human cancer cells: 95%
[1]; A549, 5.0 μM
  Inhibition rate on human cancer cells: 100%
[2]; H460, 1.0 μM
  Inhibition rate on human cancer cells: 93%
[2]; H460, 2.5 μM
  Inhibition rate on human cancer cells: 95%
[2]; H460, 5.0 μM
  Inhibition rate on human cancer cells: 95%
[3]; H520, 0.5 μM
  Inhibition rate on human cancer cells: 70%
[3]; H520, 1.0 μM
  Inhibition rate on human cancer cells: 99%
[3]; H520, 2.5 μM
  Inhibition rate on human cancer cells: 100%
[3]; H520, 5.0 μM
  Inhibition rate on human cancer cells: 100%

## COC=C(C(=O)OC)c1ccccc1COc1ccc2c(-c3ccc(C(F)(F)F)cc3)cc(=O)oc2c1 [28-41]
[2]; H460, 2.5 μM
  Inhibition rate on human cancer cells: 75%
[2]; H460, 5.0 μM
  Inhibition rate on human cancer cells: 85%
[3]; H520, 5.0 μM
  Inhibition rate on human cancer cells: 70%

## COC=C(C(=O)OC)c1ccccc1COc1ccc2c(-c3ccccc3)cc(=O)oc2c1 [28-52]
[1]; A549, 0.5 μM
  Inhibition rate on human cancer cells: 90%
[1]; A549, 1.0 μM
  Inhibition rate on human cancer cells: 95%
[1]; A549, 2.5 μM
  Inhibition rate on human cancer cells: 100%
[1]; A549, 5.0 μM
  Inhibition rate on human cancer cells: 100%
[2]; H460, 0.25 μM
  Inhibition rate on human cancer cells: 60%
[2]; H460, 0.5 μM
  Inhibition rate on human cancer cells: 90%
[2]; H460, 1.0 μM
  Inhibition rate on human cancer cells: 100%
[2]; H460, 2.5 μM
  Inhibition rate on human cancer cells: 100%
[2]; H460, 5.0 μM
  Inhibition rate on human cancer cells: 100%
[3]; H520, 0.25 μM
  Inhibition rate on human cancer cells: 70%
[3]; H520, 0.5 μM
  Inhibition rate on human cancer cells: 100%
[3]; H520, 1.0 μM
  Inhibition rate on human cancer cells: 100%
[3]; H520, 2.5 μM
  Inhibition rate on human cancer cells: 100%
[3]; H520, 5.0 μM
  Inhibition rate on human cancer cells: 100%

## CCCCCCc1c(C)c2ccc(OCc3ccccc3C(=COC)C(=O)OC)cc2oc1=O [28-75]
[1]; A549, 5.0 μM
  Inhibition rate on human cancer cells: 90%
[2]; H460, 1.0 μM
  Inhibition rate on human cancer cells: 70%
[2]; H460, 2.5 μM
  Inhibition rate on human cancer cells: 90%
[2]; H460, 5.0 μM
  Inhibition rate on human cancer cells: 95%
[3]; H520, 2.5 μM
  Inhibition rate on human cancer cells: 80%
[3]; H520, 5.0 μM
  Inhibition rate on human cancer cells: 100%

## COC=C(C(=O)OC)c1ccccc1COc1ccc2c3c(c(=O)oc2c1C)CCC3 [28-126]
[1]; A549, 2.5 μM
  Inhibition rate on human cancer cells: 85%
[1]; A549, 5.0 μM
  Inhibition rate on human cancer cells: 90%
[2]; H460, 2.5 μM
  Inhibition rate on human cancer cells: 90%
[2]; H460, 5.0 μM
  Inhibition rate on human cancer cells: 95%
[3]; H520, 1.0 μM
  Inhibition rate on human cancer cells: 70%
[3]; H520, 2.5 μM
  Inhibition rate on human cancer cells: 90%
[3]; H520, 5.0 μM
  Inhibition rate on human cancer cells: 95%

## COC=C(C(=O)OC)c1ccccc1COc1ccc2c(-c3ccccc3Cl)cc(=O)oc2c1 [28-132]
[1]; A549, 5.0 μM
  Inhibition rate on human cancer cells: 90%

## COC=C(C(=O)OC)c1ccccc1COc1ccc2c(-c3cccc(Cl)c3)cc(=O)oc2c1 [28-133]
[1]; A549, 2.5 μM
  Inhibition rate on human cancer cells: 100%
[1]; A549, 5.0 μM
  Inhibition rate on human cancer cells: 100%

## COC=C(C(=O)OC)c1ccccc1COc1ccc2c(-c3ccc(Br)cc3)cc(=O)oc2c1 [28-134]
[1]; A549, 2.5 μM
  Inhibition rate on human cancer cells: 100%
[1]; A549, 5.0 μM
  Inhibition rate on human cancer cells: 100%

## COC=C(C(=O)OC)c1ccccc1COc1ccc2c(-c3ccc(C#N)cc3)cc(=O)oc2c1 [28-135]
[1]; A549, 5.0 μM
  Inhibition rate on human cancer cells: 80%
